According to US6841547B2, “Method for decreasing low density lipoprotein” (Albert Einstein College of Medicine of Yeshevia University, priority 2003, dated 2005):

Experiments:
[1] = humans; cited from earlier work
[2] = in vivo; cited from earlier work
[3] = 6-month regimen of sub-antibacterial doxycycline: cholesterol fractions in plasma of acute coronary syndrome patients with elevated baseline cholesterol; type: in vivo, human
Protocol: After six months, the cholesterol fractions were then measured (Table 1). Table 1: The Effect of a 6-Month Regimen of Sub-Antibacterial Doxycycline on Cholesterol Values in Plasma of Acute Coromary Syndrome Patients with Elevated Baseline Cholesterol

| SMILES | Effect on serum cholesterol [1] | Effect on serum cholesterol levels [2] | Change Due to Treatment, HDL/Cholesterol (Increase) ([3]; 6 months vs baseline, doxycycline 20 mg twice a day) [%] | Change Due to Treatment, LDL-Cholesterol (Reduction) ([3]; 6 months vs baseline, doxycycline 20 mg twice a day, p=0.033) [%] | Total Cholesterol, 6 Month Level ([3]; plasma, doxycycline 20 mg twice a day for six months, 3 patients on statins, baseline 231 ± 20) [mg %] | HDL-Cholesterol, 6 Month Level ([3]; plasma, doxycycline 20 mg twice a day for six months, baseline 48 ± 17) [mg %] | LDL-Cholesterol, 6 Month Level ([3]; plasma, doxycycline 20 mg twice a day for six months, baseline 155 ± 9) [mg %] | HDL/Cholesterol, 6 Month Level ([3]; ratio of HDL-cholesterol to total cholesterol, doxycycline 20 mg twice a day for six months, baseline 0.21) |
| --- | --- | --- | --- | --- | --- | --- | --- | --- |
| CN(C)[C@@H]1C(O)=C(C(N)=O)C(=O)[C@@]2(O)C(O)=C3C(=O)c4c(O)cccc4[C@@](C)(O)[C@H]3C[C@@H]12 [tetracycline] | no effect | reduce serum cholesterol levels | – | – | – | – | – | – |
| C[C@H]1c2cccc(O)c2C(=O)C2=C(O)[C@]3(O)C(=O)C(C(N)=O)=C(O)[C@@H](N(C)C)[C@@H]3[C@@H](O)[C@@H]21 [doxycycline] | – | – | 19 | 31 | 190 ± 20 | 48 ± 18 | 107 ± 12 | 0.25 |
